Tested on: Plasmodium falciparum
Assay: Antimicrobial activity against Plasmodium falciparum
Assay type: functional, organism-based

Compound | IC50 [µM]
CC(CCCN1CCCC1)Nc1ccnc2cc(Cl)ccc12 (configuration not stated) [Chloroquine-pyrolidinyl] | 44
O=C1NC(=O)/C(=C2/C(=O)Nc3ccccc32)S1 | 19
Nc1ncc(Cc2ccc(OCc3ccccc3)c(OCc3ccccc3)c2)c(N)n1 | 3
CCCCCCCCCCC(O)(P(=O)(O)O)P(=O)(O)O | 200
Oc1ccc(Nc2ccnc3cc(Cl)ccc23)cc1 | 19
Cc1nc2cnncc2n1-c1ccc(Cl)cc1C(=O)c1ccccc1Cl | 1
Nc1ccc(S(=O)(=O)c2ccc(N)cc2)cc1 [DAPSONE] | 18
NC1=NC(c2cccc(Oc3cccc(C(F)(F)F)c3)c2)N(c2cccc(Cl)c2)C(N)=N1 (configuration not stated) | 3
OC(c1cc(C(F)(F)F)nc2c(C(F)(F)F)cccc12)C1CCCCN1 (configuration not stated) [MEFLOQUINE] | 5
Cc1c(OCC(F)(F)F)ccnc1C[S+]([O-])c1nc2ccccc2[nH]1 (configuration not stated) [LANSOPRAZOLE] | 11
NC(=O)C1C2c3ccccc3C(c3ccccc32)C1C(N)=O (single isomer, unassigned) | 42
C=C[C@H]1CN2CC[C@H]1C[C@@H]2[C@@H](O)c1ccnc2ccccc12 [CINCHONINE] | 23
NC1=NC(c2cccc(OCc3ccccc3)c2)N(c2cccc(Cl)c2)C(N)=N1 (configuration not stated) | 8
CC1SC(=O)C(C)(C)C1=O (configuration not stated) [THIOLACTOMYCIN 10] | 46
CC(C)[C@H](CO)Nc1nc(Nc2cccc(Cl)c2)c2ncn(C(C)C)c2n1 [PURVALANOLA] | 3
C/C=C1/CN2CCc3c([nH]c4ccccc34)[C@@H]2C[C@@H]1Cc1nccc2c1[nH]c1ccccc12 [USAMBARENSINE] | 2
CCc1nc(N)nc(N)c1Cc1ccc(OCc2ccccc2)c(OC)c1 | 5
CC1C2c3ccccc3C(c3ccccc32)C1C(=O)/N=N/N(C)C (configuration not stated) | 51
O=C1Nc2ccc(Br)cc2/C1=C/C(=O)c1ccccc1 | 3
O=C1Nc2ccccc2/C1=C\c1ccc(O)cc1 | 42
CCCOc1ccc(C2N=C(N)N=C(N)N2c2cccc(Cl)c2)cc1 (configuration not stated) | 3

Compound | IC50 [µM]
CC[N+](CC)(CC)CCCCCCCC[N+](CC)(CC)CC | 1
O=P(O)(O)C(Nc1ccc(I)cn1)P(=O)(O)O | 200
NC1=NC(c2ccccc2)N(c2cccc(Cl)c2)C(N)=N1 (configuration not stated) | 1
COc1cc(Cc2cnc(N)nc2N)ccc1OCc1ccccc1 | 5
CCCCCCOc1c(OC)cc(NC(C)CCCN)c2nccc(C)c12 (configuration not stated) [WR-242511] | 8
CC1(C)Oc2c(c3nc4ccccc4nc3c3ccccc23)CC1I (configuration not stated) | 2
CCCCCC(O)(P(=O)(O)O)P(=O)(O)O | 6
O=P(O)(O)C(Nc1ccc(Cl)nc1)P(=O)(O)O | 200
O=C1Nc2ccccc2/C1=C\c1c(Cl)cccc1Cl | 17
CCNCCCC(C)Nc1ccnc2cc(Cl)ccc12 (configuration not stated) [DESETHYLCHLOROQUINE] | 3
O=P(O)(O)C(NCCCc1ccccc1)P(=O)(O)O | 200
CN(C)CCC=C1c2ccccc2CCc2ccccc21 [AMITRIPTYLINE] | 558
CCc1nc(N)nc(N)c1-c1cccc(Cl)c1 | 9
COc1cc(NC(C)CCCN)c2nccc(C)c2c1OCCCCCc1ccc(C(F)(F)F)cc1 (configuration not stated) | 2
O=C1C(O)=C([C@H]2CC[C@H](c3ccc(Cl)cc3)CC2)C(=O)c2ccccc21 [ATOVAQUONE] | 1
NC1=NC(c2cccc(Oc3ccc(Cl)cc3)c2)N(c2ccc(Cl)cc2)C(N)=N1 (configuration not stated) | 4
NC1=NC(c2cccc(OCCCOc3cc(Cl)c(Cl)cc3Cl)c2)N(c2cccc(Cl)c2)C(N)=N1 (configuration not stated) | 9
CN(C)C(=O)C1C2c3ccccc3C(c3ccccc32)C1C(=O)O (configuration not stated) | 36
COc1cc(/C(N)=N/O)cc(OC)c1OC | 2010
CNCC(O)CC12CCC(c3ccccc31)c1ccccc12 (configuration not stated) [OXAPROTILINE] | 245
c1ccc(N2CCN(c3ccccc3)C2c2ccc(N3CCN(c4ccc(C5N(c6ccccc6)CCN5c5ccccc5)cc4)CC3)cc2)cc1 | 1

Compound | IC50 [µM]
CC1C2c3ccccc3C(c3ccccc32)C1C(=O)Nc1ccncc1 (configuration not stated) | 500
O=C1Nc2ccccc2/C1=C\c1ccc(C(F)(F)F)cc1 | 4
c1cc(N2CCN(c3ccc(C4OCCO4)cc3)CC2)ccc1C1OCCO1 | 1
COc1cc(NC(C)CCCN)c2nccc(C)c2c1OCCCCc1ccccc1 (configuration not stated) | 174
CC1C2c3ccccc3C(c3ccccc32)C1CN(C)C (configuration not stated) | 21
C=CCC1Cc2c(c3ccccc3c3nc4ccccc4nc23)OC1(C)C (configuration not stated) | 20
COc1cc(C)c2c(Oc3cccc(C(F)(F)F)c3)c(OC)cc(NC(C)CCCN)c2n1 (configuration not stated) [TAFENOQUINE] | 147
COc1ccc(Cc2cnc(N)nc2N)cc1OCc1ccccc1 | 4
O=C1Nc2ccccc2/C1=C/C(=O)c1ccccc1 | 4
C[C@H]1[C@H](OC(=O)CCC(=O)O)O[C@@H]2O[C@@]3(C)CC[C@H]4[C@H](C)CC[C@@H]1[C@@]24OO3 [ARTESUNATE] | 3
CC(C)=CCC/C(C)=C/CC/C(C)=C/C[C@@]1(C)SC(=O)C(C)=C1O [THIOLACTOMYCIN 7] | 8
CO[C@H]1/C=C/O[C@@]2(C)Oc3c(C)c(O)c4c(O)c(c(/C=N/N5CCN(C)CC5)c(O)c4c3C2=O)NC(=O)/C(C)=C\C=C\[C@H](C)[C@H](O)[C@@H](C)[C@@H](O)[C@@H](C)[C@H](OC(C)=O)[C@@H]1C [RIFAMPIN] | 1
Cn1cnc2c(NCc3ccccc3)nc(NCCO)nc21 [OLOMOUCINE] | 3
COc1cc(NC(C)CCCN)c2ncccc2c1 (configuration not stated) [PRIMAQUINE] | 105
CCCCOc1ccc(NC(P(=O)(O)O)P(=O)(O)O)cc1 | 200
C[C@H]1[C@@H](O)O[C@@H]2O[C@@]3(C)CC[C@H]4[C@H](C)CC[C@@H]1[C@@]24OO3 [ARTENIMOL] | 1000
CCN(CC)Cc1cc(Nc2ccnc3cc(Cl)ccc23)cc(-c2ccc(Cl)cc2)c1 [DEHYDROXY TEBAQUINE] | 51
C=C[C@@H]1CN2CC[C@@]3(CNc4c3ccc(O)c4[C@H]3CCCN3C)[C@@H]2C[C@@H]1C[C@H]1c2[nH]c3ccccc3c2CCN1C [STRYCHNOPHYLLINE] | 3
CC(=O)C(N)c1cc(O)c(O)c(O)c1 (configuration not stated) | 301
CCc1nc(N)nc(N)c1Cc1cc(OC)c(OC)c(OC)c1 | 50

More lines, in order of falling IC50, values ahead:

IC50 [µM] | Compound
471 | CC1=C(O)SC(C)C1=O (configuration not stated) [THIOLACTONE]
259 | CC1=C(O)[C@@](C)(CCC(C)C)SC1=O [THIOLACTOMYCIN 3]
200 | O=P(O)(O)C(NC1CCCCCCC1)P(=O)(O)O [(CYCLOOCTYLAMINO)METHYLENEDIPHOSPHONIC ACID]
200 | CCCCCCC(CCCC)C(O)(P(=O)(O)O)P(=O)(O)O (configuration not stated)
200 | O=P(O)(O)C(NC1CCCCC1)P(=O)(O)O [(CYCLOHEXYLAMINO)METHYLENEDIPHOSPHONIC ACID]
68 | CCCCCCCCCCCOCCOCCOCCOCCOCCO
65 | CCCCCCCCCCCCCCCC[N+](C)(C)CCCS(=O)(=O)[O-]
57 | CC(C)=CCCC(C)CC[C@@]1(C)SC(=O)C(C)=C1O (some centres not stated) [THIOLACTOMYCIN 5]
49 | CC1C2c3ccccc3C(c3ccccc32)C1C(=O)/N=C/N(C)C (configuration not stated)
44 | CC(C)(C)C(=O)/C=C1\C(=O)Nc2ccccc21
42 | CCOC(=O)/C(C#N)=C1/C(=O)Nc2ccccc21
38 | N/C(=N\O)c1cc(O)c(O)c(O)c1
37 | COc1ncnc(NS(=O)(=O)c2ccc(N)cc2)c1OC [SULFADOXINE]
37 | CC(=O)/C=C1\C(=O)Nc2ccccc21
31 | COc1cc(Cc2cnc(N)nc2N)ccc1OCc1cc(OC)c(OC)c(OC)c1
28 | C=C(C)[C@@H]1CC[C@]2(C)CC[C@]3(C)[C@H](CC[C@@H]4[C@@]5(C)CC[C@H](O)C(C)(C)[C@@H]5CC[C@]43C)[C@@H]12 [LUPEOL]
24 | N#C/C(C(N)=O)=C1/C(=O)Nc2ccccc21
23 | COc1cc(Cc2c(C)nc(N)nc2N)cc(OC)c1OC
20 | CC1(C)CCc2c(c3ccccc3c3nc4ccccc4nc23)O1
18 | CC[C@H]1OC(=O)[C@H](C)[C@@H](O[C@H]2C[C@@](C)(OC)[C@@H](O)[C@H](C)O2)[C@H](C)[C@@H](O[C@@H]2O[C@H](C)C[C@H](N(C)C)[C@H]2O)[C@](C)(O)C[C@@H](C)C(=O)[C@H](C)[C@@H](O)[C@]1(C)O [ERYTHROMYCIN]

IC50 [µM] | Compound
17 | O=C(NO)c1ccccc1 [BENZOHYDROXAMATE]
9 | CC(C)=CCc1c(O)c2ccccc2c2nc3ccccc3nc12
9 | CC1(C)Oc2c(c3nc4ccccc4nc3c3ccccc23)CC1Br (configuration not stated)
8 | CC(C)=CCC/C(C)=C/C[C@@]1(C)SC(=O)C(C)=C1O [THIOLACTOMYCIN 4]
7 | NC1=NC(c2ccc(Oc3ccccc3)cc2)N(c2ccc(Cl)cc2)C(N)=N1 (configuration not stated)
6 | NC1=NC(c2cccc(Oc3cc(Cl)cc(Cl)c3)c2)N(c2cccc(Cl)c2)C(N)=N1 (configuration not stated)
5 | Cn1c2nc3ccccc3c-2cc2cc(F)ccc21
4 | O=C1Nc2ccccc2/C1=C/C(=O)c1ccc(Br)cc1
4 | NC1=NC(c2cccc(Oc3ccc(Cl)cc3)c2)N(c2cccc(Cl)c2)C(N)=N1 (configuration not stated)
4 | NC1=NC(c2cccc(Oc3ccccc3)c2)N(c2cccc(Cl)c2)C(N)=N1 (configuration not stated)
3 | NC1=NC(c2ccc(Oc3ccccc3)cc2)N(c2cccc(Cl)c2)C(N)=N1 (configuration not stated)
3 | CN(C)c1ccc(O)c2c1C[C@H]1C[C@H]3[C@H](N(C)C)C(O)=C(C(N)=O)C(=O)[C@@]3(O)C(O)=C1C2=O [MINOCYCLINE]
3 | COc1cc(NC(C)CCCN)c2nccc(C)c2c1OCCCCCc1cccs1 (configuration not stated)
3 | CN(C)CC1=C(CN(C)C)C2c3ccccc3C1c1ccccc12
3 | COc1cc(Cc2c(C)nc(N)nc2N)ccc1OCc1ccccc1
2 | C=C[C@H]1CN2CCc3c([nH]c4ccc(O)cc34)[C@@H]2C[C@@H]1C[C@H]1c2[nH]c3ccccc3c2CCN1C
2 | COc1cc(NC(C)CCCN)c2nccc(C)c2c1OCc1cccc(C(F)(F)F)c1 (configuration not stated)
2 | CC(=O)OCCCc1nc(N)nc(N)c1-c1cccc(Cl)c1
1 | CN(C)c1ccc(Nc2c3ccccc3nc3ccccc23)cc1
1 | CN(C)c1ccc(Nc2c3ccccc3nc3cc(Cl)ccc23)cc1

— ChEMBL document CHEMBL1212812, “Multi-target spectral moment QSAR versus ANN for antiparasitic drugs against different parasite species” (Bioorg Med Chem, 2010)
